# Legend:
# [1] = system: morphine antibodies; test: inhibition of Example 2 morphine-lysozyme conjugate by antibody and recovery by morphine; type: biochemical
# [2] = system: thyroxine antibodies; test: activity of thyroxine-lysozyme conjugate (Example 17), inhibition by antibody, return by thyroxine; type: biochemical
# [3] = system: amphetamine antibody; test: amphetamine lysozyme conjugate enzyme immunoassay, cross-reactivity; type: binding; conditions: related to 1μg/ml amphetamine; 50μl of urine
# Protocol: The next drug to be considered is amphetamine. Again, the same procedure is employed for lysozyme as for the prior assays, except that 50μl of urine is employed. The relative reactivity is related to 1μg/ml amphetamine.
# [4] = system: methadone antibody; test: methadone lysozyme conjugate enzyme immunoassay (sensitivity, cross-reactivity); conditions: relative to methadone at 0.5μg/ml; ratio of concentrations giving the same optical density reading
# [5] = system: morphine antibodies; test: homogeneous enzyme immunoassay with morphine conjugate to lysozyme, cross-reactivity
# [6] = compound concentration 300 μg/ml
# [7] = compound concentration 0.3 μg/ml
compound,measurement,setting,value
2: 0^3 -methoxyimidoylmethylmorphine conjugated to lysozyme [Example 2],recovery of enzyme activity upon addition of aqueous morphine,[1]; antibody-inhibited conjugate,full recovery of activity
same,inhibition of conjugate enzyme activity by morphine antibodies,[1]; dialysate of Example 2,could be inhibited by morphine antibodies
17: thyroxine methyl ester diglycolic acid derivative conjugated to lysozyme [Example 17],inhibition by thyroxine antibodies,[2],could be inhibited by thyroxine antibodies
same,activity after addition of thyroxine,[2]; antibody-inhibited conjugate,activity returned by the addition of thyroxine
same,enzyme activity of the conjugate,[2]; product after dialysis and centrifugation,active
CC(N)Cc1ccccc1 (stereo not drawn) [Amphetamine],Relative Reactivity,[3],1
CN(C)CCCN1c2ccccc2Sc2ccc(Cl)cc21 [Chlorpromazine],Relative Reactivity,[4],0.011
COC(=O)[C@H]1[C@@H](OC(=O)c2ccccc2)C[C@@H]2CC[C@H]1N2C [Cocaine],Percent max. rate,[5]; [6],2%
COc1ccc2c3c1O[C@H]1[C@@H](O)C=C[C@H]4[C@@H](C2)N(C)CC[C@@]341 [Codeine],Percent max. rate,[5]; [7],7%
same,Percent max. rate,[5]; compound concentration 3 μg/ml,90%
CNC(C)CC1CCCC1 (stereo not drawn) [Cyclopentamine],Relative Reactivity,[3],0.33
CCC(=O)O[C@](Cc1ccccc1)(c1ccccc1)[C@H](C)CN(C)C [Darvon],Percent max. rate,[5]; [6],4%
COc1ccc2c(c1)[C@]13CCCC[C@@H]1[C@H](C2)N(C)CC3 [Dextromethorphan],Relative Reactivity,[4],0.0042
CCC(=O)O[C@](Cc1ccccc1)(c1ccccc1)[C@H](C)CN(C)C [Dextropropoxyphene],Relative Reactivity,[4],0.00089
CN[C@@H](C)[C@H](O)c1ccccc1 [Ephedrine],Relative Reactivity,[3],0.22
CC(COc1ccccc1)NC(C)C(O)c1ccc(O)cc1 (stereo not drawn) [Isoxsuprine],Relative Reactivity,[3],0.2
CNC(C)(C)Cc1ccccc1 [Mephentermine],Relative Reactivity,[3],0.62
CCC(=O)C(CC(C)N(C)C)(c1ccccc1)c1ccccc1 (stereo not drawn) [Methadone],Relative Reactivity,[4],1
same,Percent max. rate,[5]; compound concentration 30 μg/ml (8.7 × 10^-5 M),1%
CN[C@@H](C)Cc1ccccc1 [Methamphetamine],Relative Reactivity,[3],1.1
CN1CC[C@]23c4c5ccc(O)c4O[C@H]2[C@@H](O)C=C[C@H]3[C@H]1C5 [Morphine],Percent max. rate,[5]; [7],5%
same,Percent max. rate,[5]; compound concentration 3 μg/ml,67%
CC(CCc1ccccc1)NC(C)C(O)c1ccc(O)cc1 (stereo not drawn) [Nylidrin],Relative Reactivity,[3],0.27
CC(C)=CCN1CCC2(C)c3cc(O)ccc3CC1C2C (stereo not drawn) [Pentazocine],Percent max. rate,[5]; [6],3%
CC(CN1c2ccccc2Sc2ccccc21)N(C)C (stereo not drawn) [Phenergan],Relative Reactivity,[4],0.0125
NCCc1ccccc1 [Phenethylamine],Relative Reactivity,[3],0.2
CCC1(c2ccccc2)C(=O)NC(=O)NC1=O [Phenobarbital],Percent max. rate,[5]; [6],0%
CC(N)C(O)c1ccccc1 (stereo not drawn) [Phenylpropanolamine],Relative Reactivity,[3],0.33
CNC(C)CC1CCCCC1 (stereo not drawn) [Propylhexedrine],Relative Reactivity,[3],0.05
CN(C)CCCN1c2ccccc2Sc2ccc(Cl)cc21 [Thorazine],Percent max. rate,[5]; compound concentration 35 μg/ml (9.9 × 10^-5 M),6%
CC(N)Cc1ccc(O)cc1 (stereo not drawn) [p-Hydroxyamphetamine],Relative Reactivity,[3],0.022
CC(C)(N)Cc1ccccc1 [phentermine],Relative Reactivity,[3],0.62
Hydromorphine,Percent max. rate,[5]; [7],6%
same,Percent max. rate,[5]; compound concentration 3 μg/ml,55%
Morphine glucuronide,Percent max. rate,[5]; [7],4%
same,Percent max. rate,[5]; compound concentration 10 μg/ml (2.1 × 10^-5 M),77%

# Reference: patent US4065354A, “Lysozyme conjugates for enzyme immunoassays” (priority 1975, dated 1977)
